From patent US20250074910A1, “MENIN INHIBITOR AND USE THEREOF” (HITGEN INC., priority 2021, published 2025)

Columns and labels:
[1] = Pharmacokinetics test in mouse; type: in vivo, ICR mice; settings: mice, p.o. 10 mg/kg; for AUC(0-t) / half-life / Cmax: male, ICR, mouse, plasma, po, 10 mg/kg; for Cmax: read-out: Cmax; for F, %: 1 mg/kg for intravenous injection
Text: Test Example 4. In Vivo Pharmacokinetic Study
Test purpose: To determine the pharmacokinetic properties of some of the example compounds of the present disclosure in mice, rats and dogs after single intravenous injection (i.v.) and oral gavage (i.g.) administration by LC-MS/MS method.
Research methods: An appropriate amount of compound was weighed and prepared into a transparent clear solution of a certain concentration using 0.9% sodium chloride injection and 1.5 equivalents of 1M HCl aqueous solution based on the molar number of the compound. After SPF male ICR mice, SPF male SD rats, and male beagle dogs were fasted overnight, the test compound solution was given by intravenous injection and oral gavage at the corresponding dose. Anticoagulated whole blood of the test animals was collected at 5 min, 15 min, 30 min, 1 h, 2 h, 4 h, 8 h, and 24 h after administration, and plasma was separated. Plasma samples at each time point were detected by LC-MS/MS, and the plasma concentration of the compound was determined by the standard curve correction method. Phoenix WinNonlin 5.2 non-compartmental model was used to calculate the pharmacokinetic parameters of terminal elimination half-life (t½), blood peak concentration (Cmax), area under the concentration-time curve (AUC), clearance (CL), and bioavailability (F %), which was directly obtained from the serum concentration results. Blood drug concentration and pharmacokinetic parameters are expressed as mean±standard deviation (X±SD). The specific test protocols for each species are as follows.
Pharmacokinetics Test in Mouse
Test animals: SPF male ICR mice, weighing 25-30 g, 12 mice/compound, purchased from Chengdu Dossy Experimental Animal Co., Ltd.
Test design: On the day of the test, ICR mice were randomly divided into groups according to body weight, fasted but with free water for 12-14 h one day before administration, and fed 2 h after administration.
Preparation of test compound solution: The concentration of the test compound for oral gavage was 1 mg/mL. An appropriate amount of compound was weighed and prepared into a 1 mg/mL transparent clear solution using 0.9% sodium chloride injection and 1.5 equivalents of 1M HCl aqueous solution. The concentration of the test compound for intravenous injection was 0.2 mg/mL. The 1 mg/mL transparent clear solution was diluted to a concentration of 0.2 mg/mL using 0.9% sodium chloride injection. The volume of 1 M HCl solution added was calculated as: volume of 1 M HCl solution added […]=weighed amount of compound (mg)/molecular weight×1.5×1000. The amount added during preparation must not exceed the calculated value.
The test substance was administered as follows: intravenous injection: 1 mg/kg of dose, 5 mL/kg of volume, 6 mice; oral gavage: 10 mg/kg of dose, 10 mL/kg of volume, 6 mice.
Sample collection: Blood (40-50 μl) was collected in anticoagulant tubes sprayed with EDTA-K2 through the orbital venous plexus at 5 min, 15 min, 30 min, 1 h, 2 h, 4 h, 8 h, and 24 h after administration, and centrifuged at 10,000 rpm for 20 min within 1 h (the blood was saved on wet ice before and after centrifugation). The supernatant, which was plasma, was collected and frozen in a refrigerator at −20° C. or below for LC-MS/MS analysis of Full PK of male ICR mice (2 mice per group, 4 blood collection time points per mouse, crossover).

[2] = system: OCI-AML3; test: Cell proliferation inhibition (CellTiter-Glo), OCI-AML3 (NPM1 mutation); type: cell-based; settings: OCI-AML3 cells
Experimental: (§1) Test Example 2: Test of the Inhibitory Ability of Menin-MLL Interaction Inhibitors on Cell Proliferation
(§2) The inhibitory ability of the compounds of the present disclosure on the proliferation of tumor cell lines (including cell lines containing MLL fusion protein such as MV4-11, MOLM-13, THP-1 and NOMO-1, control cell lines without MLL fusion protein such as HL-60, K562 and MOLM-16, and cell lines containing NPM1 mutation such as OCI-AML3) was evaluated by using the cell viability analysis method. The cells were plated in 96-well plates at a certain concentration (e.g., 5,000-20,000 cells/well), and then an equal volume of culture medium containing 2 times the final concentration of the test compound (the final concentration ranging 10 from 1 nM to 10 μM) was added. The plates were placed in an incubator and cultured at 37° C. and 5% CO2 for 72-168 h. Before the test, an equal volume of CellTiter-Glo® Luminescent reagent was added, and the plate was incubated at room temperature for 10 min before detection using an ELISA reader (BMG LABTECH). The data were analyzed using GraphPad Prism software to obtain the IC50 value and compound fitting curve. The control compound 1 was prepared by referring to the method of Example 64 in WO2017214367.

[3] = system: MOLM-13; test: Cell proliferation inhibition (CellTiter-Glo), MOLM-13; type: cell-based; settings: MOLM-13 cells
Experimental: as §1, §2

[4] = system: MV4-11; test: Cell proliferation inhibition (CellTiter-Glo), MV4-11; type: cell-based; settings: MV4-11 cells
Experimental: as §1, §2

[5] = target: Menin/MLL-4-43 peptide interaction (Homo sapiens (Human), UniProt O00255); test: Menin-MLL interaction inhibitory activity assay (fluorescence polarization competition); type: binding; settings: FITC-MLL4-43-peptide, Menin recombinant protein
Menin/MLL-4-43 peptide interaction, sequence (O00255 whole entry, species assumed): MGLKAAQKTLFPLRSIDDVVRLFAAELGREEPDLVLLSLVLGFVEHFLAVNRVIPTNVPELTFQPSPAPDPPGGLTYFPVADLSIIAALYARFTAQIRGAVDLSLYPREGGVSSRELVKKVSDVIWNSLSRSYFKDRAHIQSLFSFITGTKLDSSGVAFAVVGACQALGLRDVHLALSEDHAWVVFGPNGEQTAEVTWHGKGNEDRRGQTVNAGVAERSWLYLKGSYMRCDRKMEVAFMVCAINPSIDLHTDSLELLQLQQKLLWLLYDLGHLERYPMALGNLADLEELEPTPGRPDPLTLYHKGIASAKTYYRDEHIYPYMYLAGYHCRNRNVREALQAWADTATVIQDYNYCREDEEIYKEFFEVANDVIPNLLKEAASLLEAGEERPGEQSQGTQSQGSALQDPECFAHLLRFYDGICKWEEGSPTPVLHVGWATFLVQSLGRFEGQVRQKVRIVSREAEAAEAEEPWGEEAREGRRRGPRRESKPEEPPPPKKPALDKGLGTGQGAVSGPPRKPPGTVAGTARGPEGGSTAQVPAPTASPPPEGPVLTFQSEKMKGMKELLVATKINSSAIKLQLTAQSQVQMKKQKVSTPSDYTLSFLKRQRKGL
Experimental: Test Example 1: Menin-MLL Interaction Inhibitory Activity Assay
The inhibition of Menin/MLL-4-43 peptide interaction by small molecule inhibitors was quantitatively detected by fluorescence polarization competition assay. The experiment was performed in a 384-well plate (Corning, Cat #3575) using a reaction buffer consisting of 50 mM Tris, pH 7.5, 50 mM NaCl, and 1 mM DTT. A 40 μL reaction system included 10 μL of 8 nM Menin recombinant protein and 10 μL of the test compound at different concentrations. The compound was pre-incubated with Menin protein for 15 min, and then 20 μL of 10 nM FITC-MLL4-43-peptide was added. After incubation on a shaker at 25° C. for 60 min, the fluorescence polarization signal (FP 485 520 520) was read using BMG PHERAStar detection. The experimental data was analyzed and processed by GraphPad Prism 6 software to obtain the IC50 value. The control compound 1 was prepared by referring to the method of Example 64 in WO2017214367.

| Compound | AUC(0-t) [1] [ng·h/mL] | half-life [1] [h] | Cmax [1] [ng/mL] | F, % [1] [%] | GI50 ([2]; Homo sapiens, OCI-AML-3, 168 h) [nM] | GI50 ([3]; Homo sapiens, MOLM-13, 168 h) [nM] | GI50 ([4]; Homo sapiens, MV4-11, 72 h) [nM] | IC50 [5] [nM] | GI50 ([2]; 168 h) [nM] | GI50 ([3]; 168 h) [nM] | GI50 ([4]; 72 h) [nM] |
| --- | --- | --- | --- | --- | --- | --- | --- | --- | --- | --- | --- |
| CCN(C(=O)c1cc(F)ccc1Oc1cncnc1N1CC2(CCN(C[C@H]3CC[C@@]4(CCC(=O)N4)CC3)CC2)C1)C(C)C [Example 1] | 5290 | 1.51 | 2480 | 79 | 277 | 580 | 76.2 |  |  |  |  |
| CCN(C(=O)c1cc(F)ccc1Oc1nncnc1N1CC2(CCN(C[C@H]3CC[C@]4(CC3)CC(C(C)(C)O)C(=O)N4)CC2)C1)C(C)C (stereo partly shown) [Example 58-1] |  |  |  |  | 42.4 | 88.9 | 17.2 | 2.9 |  |  |  |
| CCN(C(=O)c1cc(F)ccc1Oc1nncnc1N1CC2(CCN(C[C@H]3CC[C@]4(CC3)CC(=C(C)C)C(=O)N4)CC2)C1)C(C)C [Example 60] |  |  |  |  | 92.4 | 175 | 35 | 28.4 |  |  |  |
| COCC1(COC)C[C@]2(CC[C@@H](CN3CCC4(CC3)CN(c3ncncc3Oc3ccc(F)cc3C(=O)N(C(C)C)C(C)C)C4)CC2)NC1=O [Example 18] | 4040 | 1.34 | 1960 | 75 | 21.2 | 12.8 | 12.2 | 6.3 |  |  |  |
| CC(C)N(C(=O)c1cc(F)ccc1Oc1nncnc1N1CC2(CCN(CC3CCC4(CC3)COC(=O)N4)CC2)C1)C(C)C (stereo not shown) [Example 49] | 2320 | 1.1 | 1350 | 77 | 108 | 110 | 51.3 | 42 |  |  |  |
| CC(C)N(C(=O)c1cc(F)ccc1Oc1nncnc1N1CC2(CCN(C[C@H]3CC[C@]4(CC3)CC(C(C)(C)O)C(=O)N4)CC2)C1)C(C)C (stereo partly shown) [Example 59-1] |  |  |  |  | 34.7 | 55.9 | 15.3 | 2.5 |  |  |  |
| CC(C)N(C(=O)c1cc(F)ccc1Oc1cncnc1N1CC2(CCN(CC3CC4CCC3CC43COC(=O)N3)CC2)C1)C(C)C (single isomer, unassigned) [Example 51-2] |  |  |  |  |  |  |  | 47.6 | 35.3 | 93.3 | 18.8 |
| CCN(C(=O)c1cc(F)ccc1Oc1cncnc1N1CC2(CCN(CC3CC4CCC3CC43COC(=O)N3)CC2)C1)C(C)C (single isomer, unassigned) [Example 50-2a] |  |  |  |  |  |  |  | 21.1 | 56.4 | 125 | 20.5 |
| CCN(C(=O)c1cc(F)ccc1Oc1cncnc1N1CC2(CCN(CC3CC4CCC3CC43COC(=O)N3)CC2)C1)C(C)C (single isomer, unassigned) [Example 50-1b] |  |  |  |  |  | 88.9 | 26.4 | 21.8 | 61.7 |  |  |
| CCN(C(=O)c1cc(F)ccc1Oc1cncnc1N1CC2(CCN(CC3CC4CCC3CC43COC(=O)N3)CC2)C1)C(C)C (single isomer, unassigned) [Example 50-2b] |  |  |  |  |  |  |  | 61.1 | 119 | 93.3 | 26.4 |
| CC(C)N(C(=O)c1cc(F)ccc1Oc1cncnc1N1CC2(CCN(C[C@H]3CC[C@]4(CC3)CC(C)(C)C(=O)N4)CC2)C1)C1CCC1 [Example 25] |  |  |  |  | 64.3 | 86.3 | 6.9 | 31.2 |  |  |  |
| CC(C)N(C(=O)c1cc(F)ccc1Oc1nncnc1N1CC2(CCN(C[C@H]3CC[C@]4(CC3)CC(C(C)(C)O)C(=O)N4)CC2)C1)C(C)C (single isomer, unassigned) [Example 59-1a] |  |  |  |  | 18.5 | 36.2 | 9.6 | 7.8 |  |  |  |
| CC(C)N(C(=O)c1cc(F)ccc1Oc1cncnc1N1CC2(CCN(CC3CC4CCC3CC43COC(=O)N3)CC2)C1)C(C)C (single isomer, unassigned) [Example 51-1] |  |  |  |  | 68.5 | 101 | 21.1 | 35.3 |  |  |  |
| CC(C)N(C(=O)c1cc(F)ccc1Oc1nncnc1N1CC2(CCN(C[C@H]3CC[C@]4(CC3)CC(C)(C)C(=O)N4)CC2)C1)C1CC1 [Example 30] |  |  |  |  | 52 | 197 | 35.2 | 33 |  |  |  |
| CC(C)N(C(=O)c1cc(F)ccc1Oc1cncnc1N1CC2(CCN(CC3CC4CCC3CC43CCC(=O)N3)CC2)C1)C(C)C (single isomer, unassigned) [Example 13-1b] | 7770 | 3.84 | 2010 | 72 | 31.2 | 63.3 |  | 33.4 |  |  | 55.2 |
| CC(C)N(C(=O)c1cc(F)ccc1Oc1nncnc1N1CC2(CCN(CC3CCC4(CC3)CC3(CC3)C(=O)N4)CC2)C1)C(C)C (single isomer, unassigned) [Example 44-2] |  |  |  |  |  |  |  | 7.9 | 26.4 | 30.4 | 9.7 |
